The results in this text go back to US20120121591A1 (priority 2009, published 2012).

Holding throughout (assay type): cell-based
For test [1], the system named is IFN-g secretion from T cells in human whole blood. The following applies: read-out: WB (IFNg) IC50 (nM, Avg).
Test [2] concerns IL-2 secretion from T cells in human whole blood. The settings on record: read-out: WB (IL-2) IC50 (nM, Avg).
A further test concerns the target hKv1.3 (Homo sapiens, UniProt P22001). Nature of the test: cell-based. The following applies: Kv1.3 (IWQ) IC50 (nM, Avg).

Sequence of hKv1.3 (P22001 whole entry): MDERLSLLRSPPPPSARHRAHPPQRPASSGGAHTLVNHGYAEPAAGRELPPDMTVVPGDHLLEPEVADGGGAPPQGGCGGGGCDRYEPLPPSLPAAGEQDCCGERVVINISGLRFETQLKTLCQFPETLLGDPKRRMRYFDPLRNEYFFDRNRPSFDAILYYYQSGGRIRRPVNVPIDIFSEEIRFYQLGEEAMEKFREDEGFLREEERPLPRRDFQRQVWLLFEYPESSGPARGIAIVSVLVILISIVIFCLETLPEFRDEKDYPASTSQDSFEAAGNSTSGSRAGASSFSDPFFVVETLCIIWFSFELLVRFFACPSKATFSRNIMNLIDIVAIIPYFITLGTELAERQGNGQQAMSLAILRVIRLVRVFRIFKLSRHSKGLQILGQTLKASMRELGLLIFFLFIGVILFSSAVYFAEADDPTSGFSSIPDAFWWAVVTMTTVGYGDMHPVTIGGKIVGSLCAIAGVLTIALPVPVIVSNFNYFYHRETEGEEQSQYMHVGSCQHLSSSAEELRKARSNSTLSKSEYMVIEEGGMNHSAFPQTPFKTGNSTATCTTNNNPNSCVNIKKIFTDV

For the molecule `CC[C@H](C)[C@@H]1NC(=O)[C@@H](NC(=O)[C@H](CO)NC(=O)[C@@H](N)CCCNC(=N)N)CSSC[C@@H](C(N)=O)NC(=O)[C@H]([C@@H](C)O)NC(=O)CNC(=O)[C@@H]2CSSC[C@@H]3NC(=O)[C@H](CCCCN)NC(=O)[C@H](Cc4ccccc4)NC(=O)[C@H](C)NC(=O)[C@H]([C@@H](C)O)NC(=O)[C@H](CSSC[C@H](NC(=O)[C@H](Cc4cccc5ccccc45)NC(=O)[C@H](CO)NC(=O)[C@H](CC(C)C)NC(=O)[C@H](CCCNC(=N)N)NC(=O)[C@H](Cc4ccc(O)cc4)NC(=O)[C@H](CCCCN)NC(=O)[C@H](CCSC)NC(=O)[C@H](CO)NC(=O)[C@H](Cc4c[nH]cn4)NC(=O)[C@H](CCCCN)NC3=O)C(=O)N[C@@H](CCCNC(=N)N)C(=O)N[C@@H](CCCCN)C(=O)N[C@@H]([C@@H](C)O)C(=O)N2)NC(=O)[C@H](CCCNC(=N)N)NC(=O)[C@H](CO)NC(=O)[C@H](CCCCN)NC(=O)[C@@H]2CCCN2C(=O)[C@H]([C@@H](C)CC)NC(=O)[C@H]([C@@H](C)O)NC(=O)[C@H](CC(=O)O)NC1=O` [[Lys16,1-Na127]ShK-amide], the IC50 in test [1] stood at 2.94 nM; in test [2] it was 3.95 nM; on hKv1.3 it was 0.299 nM.
In the case of `CC[C@H](C)[C@@H]1NC(=O)[C@@H](NC(=O)[C@H](CO)NC(=O)[C@@H](N)CCCNC(=N)N)CSSC[C@@H](C(=O)O)NC(=O)[C@H]([C@@H](C)O)NC(=O)CNC(=O)[C@@H]2CSSC[C@@H]3NC(=O)[C@H](CCCCN)NC(=O)[C@H](Cc4ccccc4)NC(=O)[C@H](C)NC(=O)[C@H]([C@@H](C)O)NC(=O)[C@H](CSSC[C@H](NC(=O)[C@H](Cc4cccc5ccccc45)NC(=O)[C@H](CO)NC(=O)[C@H](CC(C)C)NC(=O)[C@H](CCCNC(=N)N)NC(=O)[C@H](Cc4ccc(O)cc4)NC(=O)[C@H](CCCCN)NC(=O)[C@H](CCSC)NC(=O)[C@H](CO)NC(=O)[C@H](Cc4c[nH]cn4)NC(=O)[C@H](CCCCN)NC3=O)C(=O)N[C@@H](CCCNC(=N)N)C(=O)N[C@@H](CCCCN)C(=O)N[C@@H]([C@@H](C)O)C(=O)N2)NC(=O)[C@H](CCCNC(=N)N)NC(=O)[C@H](CO)NC(=O)[C@H](CCCCN)NC(=O)[C@@H]2CCCN2C(=O)[C@H]([C@@H](C)CC)NC(=O)[C@H]([C@@H](C)O)NC(=O)[C@H](CC(=O)O)NC1=O` [[Lys16,1-Na127]ShK], the concentration for half-maximal inhibition (IC50) in test [1] is 5.68 nM; in test [2], 0.924 nM; on hKv1.3, 0.113 nM.
The like results for `CC[C@H](C)[C@@H]1NC(=O)[C@@H](NC(=O)[C@H](CO)NC(=O)[C@@H](N)CCCNC(=N)N)CSSC[C@@H](C(N)=O)NC(=O)[C@H]([C@@H](C)O)NC(=O)CNC(=O)[C@@H]2CSSC[C@@H]3NC(=O)[C@H](CCCCN)NC(=O)[C@H](Cc4ccccc4)NC(=O)[C@H](C)NC(=O)[C@H]([C@@H](C)O)NC(=O)[C@H](CSSC[C@H](NC(=O)[C@H](Cc4ccccc4)NC(=O)[C@H](Cc4ccc5ccccc5c4)NC(=O)[C@H](CC(C)C)NC(=O)[C@H](CCCNC(=N)N)NC(=O)[C@H](Cc4ccc(O)cc4)NC(=O)[C@H](CCCCN)NC(=O)[C@H](CCSC)NC(=O)[C@H](CO)NC(=O)[C@H](Cc4c[nH]cn4)NC(=O)[C@H](CCCCN)NC3=O)C(=O)N[C@@H](CCCCN)C(=O)N[C@@H](CCCCN)C(=O)N[C@@H]([C@@H](C)O)C(=O)N2)NC(=O)[C@H](CCCNC(=N)N)NC(=O)[C@H](CO)NC(=O)[C@H](CCCCN)NC(=O)[C@@H]2CCCN2C(=O)[C@H]([C@@H](C)CC)NC(=O)[C@H]([C@@H](C)O)NC(=O)[C@H](CC(=O)O)NC1=O` [[Lys16,29;2-Na126]ShK-amide] were, in that order, 0.148 nM, 0.222 nM and 0.762 nM.
`CCCC[C@@H]1NC(=O)[C@H](CO)NC(=O)[C@H](Cc2c[nH]cn2)NC(=O)[C@H](CCCCN)NC(=O)[C@@H]2CSSC[C@@H]3NC(=O)[C@H]([C@@H](C)O)NC(=O)[C@H](CCCNC(=N)N)NC(=O)[C@H](CCCCN)NC(=O)[C@H](CSSC[C@H](NC(=O)[C@H](CCCNC(=N)N)NC(=O)[C@H](CO)NC(=O)[C@H](CCCCN)NC(=O)[C@@H]4CCCN4C(=O)[C@H]([C@@H](C)CC)NC(=O)[C@H]([C@@H](C)O)NC(=O)[C@H](CC(=O)O)NC(=O)[C@H]([C@@H](C)CC)NC(=O)[C@@H](NC(=O)[C@H](CO)NC(=O)[C@@H](N)CCCNC(=N)N)CSSC[C@@H](C(N)=O)NC(=O)[C@H]([C@@H](C)O)NC(=O)CNC3=O)C(=O)N[C@@H]([C@@H](C)O)C(=O)N[C@@H](C)C(=O)N[C@@H](Cc3ccccc3)C(=O)N[C@@H](CCCCN)C(=O)N2)NC(=O)[C@H](Cc2ccccc2)NC(=O)[C@H](Cc2cccc3ccccc23)NC(=O)[C@H](CC(C)C)NC(=O)[C@H](CCCNC(=N)N)NC(=O)[C@H](Cc2ccc(O)cc2)NC(=O)[C@H](CCCCN)NC1=O` [[Lys16,29; 1-Nal26;Arg30;Nle21]ShK-amide]: the IC50 in test [1] came to 8.22 nM; in test [2] it was 9.44 nM; against hKv1.3, 2.33 nM.
Turning to `CC[C@H](C)[C@@H]1NC(=O)[C@@H](NC(=O)[C@H](CO)NC(=O)[C@@H](N)CCCNC(=N)N)CSSC[C@@H](C(N)=O)NC(=O)[C@H]([C@@H](C)O)NC(=O)CNC(=O)[C@@H]2CSSC[C@@H]3NC(=O)[C@H](CCCCN)NC(=O)[C@H](Cc4ccccc4)NC(=O)[C@H](C)NC(=O)[C@H]([C@@H](C)O)NC(=O)[C@H](CSSC[C@H](NC(=O)[C@H](Cc4ccccc4)NC(=O)[C@H](Cc4cccc5ccccc45)NC(=O)[C@H](CC(C)C)NC(=O)[C@H](CCCNC(=N)N)NC(=O)[C@H](Cc4ccc(O)cc4)NC(=O)[C@H](CCCCN)NC(=O)[C@H](CCSC)NC(=O)[C@H](CO)NC(=O)[C@H](Cc4c[nH]cn4)NC(=O)[C@H](CCCCN)NC3=O)C(=O)N[C@@H](CCCCN)C(=O)N[C@@H](CCCCN)C(=O)N[C@@H]([C@@H](C)O)C(=O)N2)NC(=O)[C@H](CCCNC(=N)N)NC(=O)[C@H](CO)NC(=O)[C@H](CCCCN)NC(=O)[C@@H]2CCCN2C(=O)[C@H]([C@@H](C)CC)NC(=O)[C@H]([C@@H](C)O)NC(=O)[C@H](CC(=O)O)NC1=O` [[Lys16,29; 1-Nal26]ShK-amide], the IC50 in test [1] worked out at 1.98 nM; in test [2] it was 0.808 nM; at hKv1.3, 0.341 nM.
The like results for `CC[C@H](C)[C@@H]1NC(=O)[C@@H](NC(=O)[C@H](CO)NC(=O)[C@@H](N)CCCNC(=N)N)CSSC[C@@H](C(N)=O)NC(=O)[C@H]([C@@H](C)O)NC(=O)CNC(=O)[C@@H]2CSSC[C@@H]3NC(=O)[C@H](CCCCN)NC(=O)[C@H](Cc4ccccc4)NC(=O)[C@H](C)NC(=O)[C@H]([C@@H](C)O)NC(=O)[C@H](CSSC[C@H](NC(=O)[C@H](Cc4ccccc4)NC(=O)[C@H](CO)NC(=O)[C@H](CC(C)C)NC(=O)[C@H](CCCNC(=N)N)NC(=O)[C@H](Cc4ccc(O)cc4)NC(=O)[C@H](CCCCN)NC(=O)[C@H](CCSC)NC(=O)[C@H](CO)NC(=O)[C@H](Cc4c[nH]cn4)NC(=O)[C@H](CCCCN)NC3=O)C(=O)N[C@@H](CCCCN)C(=O)N[C@@H](CCCNC(=N)N)C(=O)N[C@@H]([C@@H](C)O)C(=O)N2)NC(=O)[C@H](CCCNC(=N)N)NC(=O)[C@H](CO)NC(=O)[C@H](CCCCN)NC(=O)[C@@H]2CCCN2C(=O)[C@H]([C@@H](C)CC)NC(=O)[C@H]([C@@H](C)O)NC(=O)[C@H](CC(=O)O)NC1=O` [[Lys16,29; Arg30]ShK-amide] were, in that order, 0.281 nM, 0.339 nM and 0.131 nM.
The like results for `CCCC[C@@H]1NC(=O)[C@H](CO)NC(=O)[C@H](Cc2c[nH]cn2)NC(=O)[C@H](CCCCN)NC(=O)[C@@H]2CSSC[C@@H]3NC(=O)[C@H]([C@@H](C)O)NC(=O)[C@H](CCCNC(=N)N)NC(=O)[C@H](CCCCN)NC(=O)[C@H](CSSC[C@H](NC(=O)[C@H](CCCNC(=N)N)NC(=O)[C@H](CO)NC(=O)[C@H](CCCCN)NC(=O)[C@@H]4CCCN4C(=O)[C@H]([C@@H](C)CC)NC(=O)[C@H]([C@@H](C)O)NC(=O)[C@H](CC(=O)O)NC(=O)[C@H]([C@@H](C)CC)NC(=O)[C@@H](NC(=O)[C@H](CO)NC(=O)[C@@H](N)CCCNC(=N)N)CSSC[C@@H](C(N)=O)NC(=O)[C@H]([C@@H](C)O)NC(=O)CNC3=O)C(=O)N[C@@H]([C@@H](C)O)C(=O)N[C@@H](C)C(=O)N[C@@H](Cc3ccccc3)C(=O)N[C@@H](CCCCN)C(=O)N2)NC(=O)[C@H](Cc2ccccc2)NC(=O)[C@H](CO)NC(=O)[C@H](CC(C)C)NC(=O)[C@H](CCCNC(=N)N)NC(=O)[C@H](Cc2ccc(O)cc2)NC(=O)[C@H](CCCCN)NC1=O` [[Lys16,29; Nle21,Arg30]ShK-amide] were, in that order, 2.84 nM, 1.72 nM and 0.484 nM.
The like results for `CC[C@H](C)[C@@H]1NC(=O)[C@@H](NC(=O)[C@H](CO)NC(=O)[C@@H](N)CCCNC(=N)N)CSSC[C@@H](C(N)=O)NC(=O)[C@H]([C@@H](C)O)NC(=O)CNC(=O)[C@@H]2CSSC[C@@H]3NC(=O)[C@H](CCCCN)NC(=O)[C@H](Cc4ccccc4)NC(=O)[C@H](C)NC(=O)[C@H]([C@@H](C)O)NC(=O)[C@H](CSSC[C@H](NC(=O)[C@H](Cc4c[nH]c5ccccc45)NC(=O)[C@H](CO)NC(=O)[C@H](CC(C)C)NC(=O)[C@H](CCCNC(=N)N)NC(=O)[C@H](Cc4ccc(O)cc4)NC(=O)[C@H](CCCCN)NC(=O)[C@H](CCSC)NC(=O)[C@H](CO)NC(=O)[C@H](Cc4c[nH]cn4)NC(=O)[C@H](CCCCN)NC3=O)C(=O)N[C@@H](CCCCN)C(=O)N[C@@H](CCCCN)C(=O)N[C@@H]([C@@H](C)O)C(=O)N2)NC(=O)[C@H](CCCNC(=N)N)NC(=O)[C@H](CO)NC(=O)[C@H](CCCCN)NC(=O)[C@@H]2CCCN2C(=O)[C@H]([C@@H](C)CC)NC(=O)[C@H]([C@@H](C)O)NC(=O)[C@H](CC(=O)O)NC1=O` [[Lys16,29;Trp27]ShK-amide] were, in that order, 0.606 nM, 0.264 nM and 0.121 nM.
